Assay results taken from patent US6689807B1, “HMG CoA reductase inhibitors for promoting angiogenesis” (priority 2000, dated 2004).

Key:
Akt = Akt serine 473 phosphorylation, western immunoblot in HUVEC; format: cell-based, human
[1] = test system: bovine aortic endothelial cells; experiment: NO release from endothelial cells (chemiluminescence); format: cell-based; conditions: BAEC
Experimental: Nitric oxide release was measured in the cell supernatant by chemiluminescent detection of […] (NO2^−), the stable breakdown product of NO. […] In some samples, wortmannin was added 1 hour prior to stimulation. Cell supernatants were collected, deproteinized, and refluxed in glacial acetic acid containing sodium iodide. Processed specimens were measured with a NO analyzer (Sievers).

[2] = test system: tumor-induced blood-vessel formation; conditions: mouse model of tumor-cell induced angiogenesis; cited from earlier work
HUVEC = experiment: Apoptosis assays in serum-free HUVEC (Annexin-V/propidium iodide, Hoechst 33342 pyknotic nuclei); format: cell-based, human; conditions: serum-free media
Experimental: HUVEC cultures were plated on chamber slides at a density of 4×10^4 cells/well. […] Parallel cultures were infected with an adenoviral construct expressing dominant-negative Akt (dnAKT) 24 hours prior to the change to serum-free media.
Data are shown as the mean ±S.E.M. (n=4-6, *p<0.05).
Fluorescence-labeled Annexin-V-FLUOS staining of HUVEC was performed according to manufacturer's instructions (Roche Molecular Biochemicals). Briefly, cells were plated on to chamber slides (Nunc) and placed in EBM for 3 hours. […] For detection of pyknotic nuclei, cells were stained with Hoechst 33342. […] Infection with adenovirus encoding dominant-negative Aktl was initiated 24 hours prior to incubation in EBM media.

eNOS = experiment: Phosphorylation of endogenous eNOS in vivo (32P-orthophosphate labelled HUVEC); format: cell-based, human; conditions: simvastatin 1 μM or VEGF 100 ng/ml, 30 min
Experimental: Alternatively, HUVEC were infected with adenovirus expressing constitutively-active Akt (myrAkt) 24 hours prior to radiolabeling and assayed for endogenous eNOS phosphorylation in the absence of Akt agonist. […] Endogenous eNOS protein was immunoprecipitated, separated by SDS-PAGE, and its phosphorylation was visualized by autoradiography. c, COS-7 cells co-transfected with eNOS (wt: wildtype eNOS, S1179A: serine 1179 mutant) and Akt (HA-Akt) expression plasmids. […] Immunoprecipitates of wild-type or mutant eNOS were examined for ^32P-phosphate incorporation by autoradiography following SDS-PAGE.
The lysate was subjected to immunoprecipitation using mouse monoclonal anti-eNOS antibody (Transduction Laboratories). Radiolabeled phosphate incorporation into each protein was visualized after SDS-PAGE (7.5%) by autoradiography.

VEGF = conditions: cultured primary endothelial cells; cited from earlier work
ischemic hindlimb = experiment: Limb revascularization studies after unilateral femoral artery resection; format: in vivo; conditions: rabbit, simvastatin 0.1 mg/kg daily i.p., 40 days
Experimental: Male New Zealand white rabbits weighing 3.0 to 3.5 kg were utilized to examine the effects of Akt-signaling and simvastatin-mediated stimulation of vessel growth. For the infusion model, the left femoral artery and major side branches were excised from their proximal origin to within 2 cm of the bifurcation into the saphenous and popliteal arteries. After 10 days, to permit postoperative recovery, the distal femoral artery was re-exposed and, after temporary clamping inflow veins, 50 ml of saline, saline with 3.5×10^10 viral particles of Ad-βgal, or saline with 3.5×10^10 viral particles of Ad-myrAkt was infused via the distal femoral artery and incubated for 15 minutes. […] The remainder of the animals (n=6 per experimental group) were analyzed for limb revascularization at 31 days after femoral artery resection. […] Animals in these groups (n=6 each) were analyzed for limb revascularization 40 days after surgery. Calf blood pressure was measured in both limbs by Doppler flow meter (model 1059, Parks Medical Electronics, Aloha, Oreg.). […] Collateral arteries were evaluated by internal iliac angiography. […] Nonionic contrast media (Isovue-370, Squibb Diagnostics, New Brunswick, N.J.) was injected at a rate of 1 ml/sec and serial images of the ischemic hindlimb were recorded at a rate of 1 film/sec for 10 seconds. […] Angiographic luminal diameter (d) was determined from the angiograms. […]

With `COC[C@H]1OC(=O)c2coc3c2[C@@]1(C)C1=C(C3=O)[C@@H]2CCC(=O)[C@@]2(C)C[C@H]1OC(C)=O` [wortmannin] the “total Akt or eNOS protein levels” value (Akt; HUVEC) was “no effect”, the “simvastatin-stimulated NO release with wortmannin treatment” value ([1]; wortmannin added 1 hour prior to simvastatin) was 0.26±0.05 nmol NO2^−/ml and the “basal NO synthesis with wortmannin treatment” value ([1]; wortmannin, no simvastatin) was 0.29±0.07 nmol NO2^−/ml.

For TNF-α, the tumor-induced blood-vessel formation [2] is given as “no angiostatic effects”.

In the case of `CC(O)(CCO)CC(=O)O` [mevalonate, L-mevalonate], the “effect on VEGF-induced endothelial cell survival” value (HUVEC) is reported as “no effect”, the “effect on statin-induced endothelial cell survival” value (HUVEC) is reported as “blocked” and the “effect on survival in the absence of statin or VEGF stimulation” value (HUVEC) is reported as “no detectable effect”. The “total Akt or eNOS protein levels” value (Akt; HUVEC) was “no effect”, the “effect on simvastatin-induced Akt phosphorylation” value (Akt; HUVEC pretreated 1 hour (mevalonate 200 μM, wortmannin 500 nM, LY294002 10 μM), then 1 μM simvastatin 30 minutes) was “blocked” and the “effect on VEGF-induced Akt phosphorylation” value (Akt; HUVEC, mevalonate 200 μM, 100 ng/ml VEGF) was “no effect”.

For VEGF, the “Akt serine 473 phosphorylation” value (Akt; HUVEC, simvastatin within 30 minutes, VEGF 100 ng/ml) was “robust activation” and the “phosphate incorporation in endogenous eNOS” value (eNOS) was “increase”.

With `O=c1cc(N2CCOCC2)oc2c(-c3ccccc3)cccc12` [LY294002] the “total Akt or eNOS protein levels” value (Akt; HUVEC) was “no effect”.

For `CC[C@H](C)C(=O)O[C@H]1C[C@@H](C)C=C2C=C[C@H](C)[C@H](CC[C@@H]3C[C@@H](O)CC(=O)O3)[C@H]21` [lovastatin], the tumor-induced blood-vessel formation [2] is given as “no angiostatic effects”.

In the case of `CC[C@H](C)C(=O)O[C@H]1CCC=C2C=C[C@H](C)[C@H](CC[C@@H]3C[C@@H](O)CC(=O)O3)[C@H]21` [mevastatin], the “induction of VEGF expression” value (VEGF) is listed as “completely blocked”.

With `CCC(C)(C)C(=O)O[C@H]1C[C@@H](C)C=C2C=C[C@H](C)[C@H](CC[C@@H]3C[C@@H](O)CC(=O)O3)[C@H]21` [simvastatin] the “capillary density in adductor muscle” value (ischemic hindlimb) was 253±23 capillaries/mm^2, the Doppler flow (ischemic hindlimb; maximal flow after papaverine) was 46.6 ± 3.0 mL/min and the “simvastatin concentration at which maximal Akt phosphorylation occurs” value (Akt; HUVEC, serine 473, within 30 minutes) was 1.0 µM. For the same molecule, the NO release ([1]; simvastatin 1 hour) was 0.48±0.07 nmol NO2^−/ml.
